Assays:
Type in all cases: in vivo
[1] = system: barnyardgrass (Echinochloa crus-galli); assay: Test C preemergence, plant response rating; settings: Preemergence
[2] = system: ragweed (common ragweed, Ambrosia elatior); assay: Test C postemergence, plant response rating; settings: for Plant response rating, Ragweed: scale 0 to 100; for Ragweed plant response rating: scale 0 to 100 (0 no effect, 100 complete control)
In short: (§1)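 Both timings shared one formulation, a non-phytotoxic solvent mixture with surfactant, and a greenhouse period of 13 to 15 d. Preemergence used seeded loam/sand or silt loam soil, postemergence used 2 to 18 cm plants; visual ratings ran from 0 (no effect) to 100 (complete control).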

[3] = system: chickweed (common chickweed, Stellaria media); assay: Test C postemergence, plant response rating; settings: for Plant response rating, Chickweed: scale 0 to 100; for Chickweed plant response rating: scale 0 to 100 (0 no effect, 100 complete control)
In short: as §1

[4] = system: ryegrass, Italian (Italian ryegrass, Lolium multiflorum); assay: Test C postemergence, plant response rating; settings: for Plant response rating, Ryegrass, Italian: scale 0 to 100; for Ryegrass, Italian plant response rating: scale 0 to 100 (0 no effect, 100 complete control)
In short: as §1

[5] = system: morningglory (Ipomoea coccinea); assay: Test C postemergence, plant response rating; settings: for Plant response rating, Morningglory: scale 0 to 100; for Morningglory plant response rating: scale 0 to 100 (0 no effect, 100 complete control)
In short: as §1

[6] = system: lambsquarters (Chenopodium album); assay: Test C postemergence, plant response rating; settings: for Plant response rating, Lambsquarters: scale 0 to 100; for Lambsquarters plant response rating: scale 0 to 100 (0 no effect, 100 complete control)
In short: as §1

[7] = system: barnyardgrass (Echinochloa crus-galli); assay: Test C postemergence, plant response rating; settings: for Plant response rating, Barnyardgrass: scale 0 to 100; for Barnyardgrass plant response rating: scale 0 to 100 (0 no effect, 100 complete control)
In short: as §1

[8] = system: nutsedge, yellow (yellow nutsedge, Cyperus esculentus); assay: Test C postemergence, plant response rating; settings: for Plant response rating, Nutsedge, Yellow: scale 0 to 100; for Nutsedge, Yellow plant response rating: scale 0 to 100 (0 no effect, 100 complete control)
In short: as §1

[9] = system: oat, wild (wild oat Avena fatua); assay: Test C postemergence, plant response rating; settings: for Plant response rating, Oat, Wild: scale 0 to 100; for Oat, Wild plant response rating: scale 0 to 100 (0 no effect, 100 complete control)
In short: as §1

[10] = system: blackgrass (Alopecurus myosuroides); assay: Test C postemergence, plant response rating; settings: for Plant response rating, Blackgrass: scale 0 to 100; for Blackgrass plant response rating: scale 0 to 100 (0 no effect, 100 complete control)
In short: as §1

[11] = system: wheat (winter wheat, Triticum aestivum); assay: Test C postemergence, plant response rating; settings: for Plant response rating, Wheat: scale 0 to 100; for Wheat plant response rating: scale 0 to 100 (0 no effect, 100 complete control)
In short: as §1

[12] = system: velvetleaf (Abutilon theophrasti); assay: Test C postemergence, plant response rating; settings: for Plant response rating, Velvetleaf: scale 0 to 100; for Velvetleaf plant response rating: scale 0 to 100 (0 no effect, 100 complete control)
In short: as §1

[13] = system: pigweed (Amaranthus retroflexus); assay: Test C preemergence, plant response rating; settings: Preemergence
[14] = system: johnsongrass (Sorghum halepense); assay: Test C preemergence, plant response rating
[15] = system: galium (catchweed bedstraw, Galium aparine); assay: Test C preemergence, plant response rating

O=C(OCCC(F)(F)F)c1c(Br)cccc1Oc1ncc(Br)cn1 [Compound 33]
70: Plant response rating, Lambsquarters ([6]; 31 g ai/ha)
85: Chickweed plant response rating ([3]; 62 g ai/ha) | Chickweed plant response rating ([3]; 125 g ai/ha)
100: Plant response rating, Barnyardgrass ([1]; 125 g ai/ha, scale of 0 to 100) | Plant response rating, Pigweed ([13]; 125 g ai/ha, scale of 0 to 100) | Plant response rating, Pigweed ([13]; 31 g ai/ha, scale 0 to 100) | Plant response rating, Pigweed ([13]; 62 g ai/ha, scale 0 to 100)
5: Plant response rating, Ryegrass, Italian ([4]; 31 g ai/ha) | Ryegrass, Italian plant response rating ([4]; 62 g ai/ha) | Plant response rating, Barnyardgrass ([7]; 16 g ai/ha) | Plant response rating, Barnyardgrass ([7]; 31 g ai/ha) | Plant response rating, Nutsedge, Yellow ([8]; 16 g ai/ha) | Plant response rating, Nutsedge, Yellow ([8]; 31 g ai/ha) | Nutsedge, Yellow plant response rating ([8]; 62 g ai/ha) | Plant response rating, Oat, Wild ([9]; 16 g ai/ha) | Plant response rating, Blackgrass ([10]; 16 g ai/ha) | Plant response rating, Blackgrass ([10]; 31 g ai/ha) | Wheat plant response rating ([11]; 125 g ai/ha) | Plant response rating, Johnsongrass ([14]; 31 g ai/ha, scale 0 to 100)
50: Ragweed plant response rating ([2]; 62 g ai/ha) | Plant response rating, Chickweed ([3]; 16 g ai/ha) | Plant response rating, Velvetleaf ([12]; 31 g ai/ha)
10: Barnyardgrass plant response rating ([7]; 62 g ai/ha) | Nutsedge, Yellow plant response rating ([8]; 125 g ai/ha) | Plant response rating, Oat, Wild ([9]; 31 g ai/ha) | Blackgrass plant response rating ([10]; 62 g ai/ha)
20: Plant response rating, Barnyardgrass ([1]; 16 g ai/ha, scale 0 to 100) | Blackgrass plant response rating ([10]; 125 g ai/ha)
90: Lambsquarters plant response rating ([6]; 125 g ai/ha)
55: Plant response rating, Chickweed ([3]; 31 g ai/ha) | Plant response rating, Morningglory ([5]; 16 g ai/ha)
65: Plant response rating, Morningglory ([5]; 31 g ai/ha) | Morningglory plant response rating ([5]; 125 g ai/ha) | Velvetleaf plant response rating ([12]; 62 g ai/ha)
80: Lambsquarters plant response rating ([6]; 62 g ai/ha) | Plant response rating, Pigweed ([13]; 16 g ai/ha, scale 0 to 100)
35: Plant response rating, Johnsongrass ([14]; 125 g ai/ha, scale of 0 to 100)
40: Plant response rating, Barnyardgrass ([1]; 31 g ai/ha, scale 0 to 100) | Plant response rating, Ragweed ([2]; 16 g ai/ha)
95: Plant response rating, Barnyardgrass ([1]; 62 g ai/ha, scale of 0 to 100) | Plant response rating, Galium ([15]; 125 g ai/ha, scale of 0 to 100)
30: Plant response rating, Ragweed ([2]; 31 g ai/ha) | Ryegrass, Italian plant response rating ([4]; 125 g ai/ha) | Oat, Wild plant response rating ([9]; 125 g ai/ha)
60: Ragweed plant response rating ([2]; 125 g ai/ha) | Plant response rating, Lambsquarters ([6]; 16 g ai/ha) | Plant response rating, Galium ([15]; 31 g ai/ha, scale 0 to 100) | Plant response rating, Galium ([15]; 62 g ai/ha, scale of 0 to 100)
25: Barnyardgrass plant response rating ([7]; 125 g ai/ha) | Oat, Wild plant response rating ([9]; 62 g ai/ha) | Plant response rating, Velvetleaf ([12]; 16 g ai/ha) | Plant response rating, Johnsongrass ([14]; 62 g ai/ha, scale 0 to 100)
0: Plant response rating, Ryegrass, Italian ([4]; 16 g ai/ha) | Plant response rating, Wheat ([11]; 16 g ai/ha) | Plant response rating, Wheat ([11]; 31 g ai/ha) | Wheat plant response rating ([11]; 62 g ai/ha) | Plant response rating, Johnsongrass ([14]; 16 g ai/ha, scale 0 to 100) | Plant response rating, Galium ([15]; 16 g ai/ha, scale 0 to 100)
75: Morningglory plant response rating ([5]; 62 g ai/ha) | Velvetleaf plant response rating ([12]; 125 g ai/ha)

N#Cc1cccc(Oc2ncc(Cl)cn2)c1CCCC(F)(F)F [Compound 72]
100: Plant response rating, Barnyardgrass ([1]; 125 g ai/ha, scale of 0 to 100) | Plant response rating, Pigweed ([13]; 125 g ai/ha, scale of 0 to 100) | Plant response rating, Pigweed ([13]; 16 g ai/ha, scale 0 to 100) | Plant response rating, Pigweed ([13]; 31 g ai/ha, scale 0 to 100) | Plant response rating, Pigweed ([13]; 62 g ai/ha, scale 0 to 100) | Plant response rating, Johnsongrass ([14]; 125 g ai/ha, scale of 0 to 100) | Plant response rating, Galium ([15]; 125 g ai/ha, scale of 0 to 100)
10: Ryegrass, Italian plant response rating ([4]; 62 g ai/ha) | Barnyardgrass plant response rating ([7]; 62 g ai/ha) | Barnyardgrass plant response rating ([7]; 125 g ai/ha) | Plant response rating, Nutsedge, Yellow ([8]; 31 g ai/ha) | Nutsedge, Yellow plant response rating ([8]; 62 g ai/ha) | Oat, Wild plant response rating ([9]; 125 g ai/ha) | Plant response rating, Blackgrass ([10]; 31 g ai/ha) | Blackgrass plant response rating ([10]; 62 g ai/ha)
30: Blackgrass plant response rating ([10]; 125 g ai/ha)
80: Plant response rating, Barnyardgrass ([1]; 62 g ai/ha, scale of 0 to 100)
40: Ragweed plant response rating ([2]; 62 g ai/ha) | Morningglory plant response rating ([5]; 62 g ai/ha) | Plant response rating, Velvetleaf ([12]; 16 g ai/ha) | Velvetleaf plant response rating ([12]; 62 g ai/ha)
98: Chickweed plant response rating ([3]; 125 g ai/ha)
35: Plant response rating, Ragweed ([2]; 16 g ai/ha)
25: Plant response rating, Barnyardgrass ([1]; 16 g ai/ha, scale 0 to 100)
65: Plant response rating, Chickweed ([3]; 16 g ai/ha) | Plant response rating, Morningglory ([5]; 31 g ai/ha) | Plant response rating, Johnsongrass ([14]; 31 g ai/ha, scale 0 to 100)
90: Plant response rating, Barnyardgrass ([1]; 31 g ai/ha, scale 0 to 100) | Chickweed plant response rating ([3]; 62 g ai/ha) | Plant response rating, Galium ([15]; 62 g ai/ha, scale of 0 to 100)
75: Ragweed plant response rating ([2]; 125 g ai/ha) | Plant response rating, Morningglory ([5]; 16 g ai/ha) | Plant response rating, Lambsquarters ([6]; 16 g ai/ha) | Lambsquarters plant response rating ([6]; 62 g ai/ha) | Plant response rating, Galium ([15]; 31 g ai/ha, scale 0 to 100)
85: Plant response rating, Chickweed ([3]; 31 g ai/ha) | Plant response rating, Lambsquarters ([6]; 31 g ai/ha) | Lambsquarters plant response rating ([6]; 125 g ai/ha)
15: Ryegrass, Italian plant response rating ([4]; 125 g ai/ha) | Nutsedge, Yellow plant response rating ([8]; 125 g ai/ha)
5: Plant response rating, Ryegrass, Italian ([4]; 16 g ai/ha) | Plant response rating, Ryegrass, Italian ([4]; 31 g ai/ha) | Plant response rating, Barnyardgrass ([7]; 16 g ai/ha) | Plant response rating, Barnyardgrass ([7]; 31 g ai/ha) | Plant response rating, Nutsedge, Yellow ([8]; 16 g ai/ha) | Plant response rating, Oat, Wild ([9]; 16 g ai/ha) | Plant response rating, Oat, Wild ([9]; 31 g ai/ha) | Oat, Wild plant response rating ([9]; 62 g ai/ha) | Plant response rating, Blackgrass ([10]; 16 g ai/ha) | Wheat plant response rating ([11]; 125 g ai/ha) | Plant response rating, Johnsongrass ([14]; 16 g ai/ha, scale 0 to 100) | Plant response rating, Galium ([15]; 16 g ai/ha, scale 0 to 100)
0: Plant response rating, Wheat ([11]; 16 g ai/ha) | Plant response rating, Wheat ([11]; 31 g ai/ha) | Wheat plant response rating ([11]; 62 g ai/ha)
50: Plant response rating, Ragweed ([2]; 31 g ai/ha) | Plant response rating, Velvetleaf ([12]; 31 g ai/ha)
70: Morningglory plant response rating ([5]; 125 g ai/ha) | Velvetleaf plant response rating ([12]; 125 g ai/ha) | Plant response rating, Johnsongrass ([14]; 62 g ai/ha, scale 0 to 100)
